Experimental findings from patent US11078170B2 (Assembly Biosciences, Inc., priority 2017, dated 2021) are described below.

A value given as a limit tells only on which side of the number the result lay.

The experiment deals with HBV viral production from HepAD38 cells. In words: Activity of test compounds on viral production from HepAD38 cells (viral load by qPCR of HBV core sequence in supernatant). The class given is cell-based. The settings on record: Hepatitis B virus, 120 h, 5 days incubation, HBV DNA in supernatant by qPCR, top concentration 10 μM, read-out: Viral Load EC50 Activity range. The gist of the method:
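HepAD38 cells, 50,000/well in tetracycline-free 2% FBS medium, treated 5 days at 37° C. with compound from 10 μM top concentration. HBV DNA in supernatant quantified by TaqMan qPCR of core sequence against DNA standards, relative to DMSO wells; CellTiter-Glo viability read in parallel. EC50/CC50 from four-parameter logistic fit.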
(In qPCR the cycle at which signal appears reflects the starting amount.)

The term EC50 denotes the concentration at which the effect is half-maximal. With `CN1[C@H](C(=O)Nc2ccc(F)c(Cl)c2)C[C@H](c2ccc(Cc3ccccc3)s2)NS1(=O)=O` [HBV-CSU-117-ISO-I, Cis-(5-benzylthiophen-2-yl)-N-(3-chloro-4-fluorophenyl)-2-methyl-1,2,6-thiadiazinane-3-carboxamide 1,1-dioxide], the EC50 was less than 1000 nM.

In the case of `O=C(Nc1ccc(F)c(Cl)c1)C1CC(c2nccs2)NS(=O)(=O)N1CCN1CCOCC1` (racemic) [HBV-CSU-082, Cis-N-(3-Chloro-4-fluorophenyl)-2-(2-morpholinoethyl)-5-(thiazol-2-yl)-1,2,6-thiadiazinane-3-carboxamide 1,1-dioxide], the EC50 was greater than 5000 nM.

In the case of `CCn1cc(-c2ccc([C@H]3C[C@@H](C(=O)Nc4ccc(F)c(Cl)c4)N(C)S(=O)(=O)N3)s2)cn1` [HBV-CSU-291-ISO-I, Cis-N-(3-chloro-4-fluorophenyl)-5-(5-(1-ethyl-1H-pyrazol-4-yl)thiophen-2-yl)-2-methyl-1,2,6-thiadiazinane-3-carboxamide 1,1-dioxide], the concentration for a half-maximal effect (EC50) was less than 1000 nM.

Take `CCOCCN1C(C(=O)Nc2ccc(F)c(Cl)c2)CC(c2nccs2)NS1(=O)=O` (racemic) [HBV-CSU-142, Cis-N-(3-Chloro-4-fluorophenyl)-2-(2-ethoxyethyl)-5-(thiazol-2-yl)-1,2,6-thiadiazinane-3-carboxamide 1,1-dioxide]: the EC50 was less than 1000 nM.

Take `CN1C(C(=O)Nc2ccc(F)c(Cl)c2)CC(c2cccc(OC(F)F)c2)NS1(=O)=O` (racemic) [HBV-CSU-264, Cis-N-(3-chloro-4-fluorophenyl)-5-(3-(difluoromethoxy)phenyl)-2-methyl-1,2,6-thiadiazinane-3-carboxamide 1,1-dioxide]: the EC50 is less than 1000 nM.

Regarding `CC(C)n1cc(-c2ccc([C@@H]3C[C@H](C(=O)Nc4ccc(F)c(Cl)c4)N(C)S(=O)(=O)N3)s2)cn1` [HBV-CSU-292-ISO-II, Cis-N-(3-chloro-4-fluorophenyl)-5-(5-(1-isopropyl-1H-pyrazol-4-yl)thiophen-2-yl)-2-methyl-1,2,6-thiadiazinane-3-carboxamide 1,1-dioxide], the EC50 was 1000 to 5000 nM.

Regarding `CN1C(C(=O)Nc2ccc(F)c(Cl)c2)CC(c2cc(-c3ncnn3C)cs2)NS1(=O)=O` (racemic) [HBV-CSU-327, Cis-N-(3-Chloro-4-fluorophenyl)-2-methyl-5-(4-(1-methyl-1H-1,2,4-triazol-5-yl)thiophen-2-yl)-1,2,6-thiadiazinane-3-carboxamide 1,1-dioxide], the EC50 is less than 1000 nM.

In the case of `Cc1nn(C)cc1-c1ccc([C@H]2C[C@@H](C(=O)Nc3ccc(F)c(Cl)c3)N(C)S(=O)(=O)N2)s1` [HBV-CSU-313-ISO-I, Cis-N-(3-chloro-4-fluorophenyl)-5-(5-(1,3-dimethyl-1H-pyrazol-4-yl)thiophen-2-yl)-2-methyl-1,2,6-thiadiazinane-3-carboxamide 1,1-dioxide], the 50% effective concentration (EC50) is less than 1000 nM.

Take `CN1[C@H](C(=O)Nc2ccc(F)c(Cl)c2)C[C@H](c2ccc(-c3cnn(CCO)c3)s2)NS1(=O)=O` [HBV-CSU-293-ISO-I, Cis-N-(3-chloro-4-fluorophenyl)-5-(5-(1-(2-hydroxyethyl)-1H-pyrazol-4-yl)thiophen-2-yl)-2-methyl-1,2,6-thiadiazinane-3-carboxamide 1,1-dioxide]: the EC50 is less than 1000 nM.

As to `C#CCN1[C@@H](C(=O)Nc2ccc(F)c(Cl)c2)C[C@@H](c2nccs2)NS1(=O)=O` [HBV-CSU-089-ISO-II, Cis-N-(3-chloro-4-fluorophenyl)-2-(prop-2-yn-1-yl)-5-(thiazol-2-yl)-1,2,6-thiadiazinane-3-carboxamide 1,1-dioxide], the EC50 is greater than 5000 nM.

Consider `CC(C)n1cc(-c2csc([C@H]3C[C@@H](C(=O)Nc4ccc(F)c(Cl)c4)N(C)S(=O)(=O)N3)c2)cn1` [HBV-CSU-295-ISO-I, Cis-N-(3-chloro-4-fluorophenyl)-5-(4-(1-isopropyl-1H-pyrazol-4-yl)thiophen-2-yl)-2-methyl-1,2,6-thiadiazinane-3-carboxamide 1,1-dioxide], for which the EC50 is less than 1000 nM.

In the case of `CN1[C@@H](C(=O)Nc2ccc(F)c(Cl)c2)C[C@@H](c2ccc(C(F)(F)F)cc2)NS1(=O)=O` (stereo in doubt) [HBV-CSU-217-ISO-II, Cis-N-(3-Chloro-4-fluorophenyl)-2-methyl-5-(4-(trifluoromethyl)phenyl)-1,2,6-thiadiazinane-3-carboxamide 1,1-dioxide], the EC50 is less than 1000 nM.

In the case of `CN1[C@H](C(=O)Nc2ccc(F)c(Cl)c2)C[C@H](c2cc(-c3cncs3)cs2)NS1(=O)=O` [HBV-CSU-286-ISO-I, Cis-N-(3-Chloro-4-fluorophenyl)-2-methyl-5-(4-(thiazol-5-yl)thiophen-2-yl)-1,2,6-thiadiazinane-3-carboxamide 1,1-dioxide], the EC50 was less than 1000 nM.

Consider `CN1[C@@H](C(=O)Nc2ccc(F)c(Cl)c2)C[C@@H](c2cnc(-c3ccccc3)s2)NS1(=O)=O` [HBV-CSU-235-ISO-II, N-(3-Chloro-4-fluorophenyl)-2-methyl-5-(2-phenylthiazol-5-yl)-1,2,6-thiadiazinane-3-carboxamide 1,1-dioxide], for which the EC50 is greater than 5000 nM.

For `COc1cccc(C2CC(C(=O)Nc3ccc(F)c(Cl)c3)N(C)S(=O)(=O)N2)c1` (stereo not drawn) [HBV-CSU-204, Cis-N-(3-Chloro-4-fluorophenyl)-5-(3-methoxyphenyl)-2-methyl-1,2,6-thiadiazinane-3-carboxamide 1,1-dioxide], the EC50 is less than 1000 nM.

With `[2H]C1C([2H])(c2ccc(Br)s2)NS(=O)(=O)N(C)C1([2H])C(=O)Nc1ccc(F)c(Cl)c1` (stereo not drawn) [HBV-CSU-371, Cis-5-(5-Bromothiophen-2-yl)-N-(3-chloro-4-fluorophenyl)-2-methyl-1,2,6-thiadiazinane-3,4,5-d3-3-carboxamide 1,1-dioxide], the EC50 was less than 1000 nM.

For the compound `[2H]C1C([2H])(c2ccc(-c3cn(C)cn3)s2)NS(=O)(=O)N(C)C1([2H])C(=O)Nc1ccc(F)c(Cl)c1` (stereo not drawn) [HBV-CSU-375, Cis-N-(3-Chloro-4-fluorophenyl)-2-methyl-5-(5-(1-methyl-1H-imidazol-4-yl)thiophen-2-yl)-1,2,6-thiadiazinane-3,4,5-d3-3-carboxamide 1,1-dioxide], the EC50 was less than 1000 nM.

For the compound `CN1[C@@H](C(=O)Nc2ccc(F)c(Cl)c2)C[C@@H](c2cc(-c3ccccc3)cs2)NS1(=O)=O` [HBV-CSU-148-ISO-II, Cis-N-(3-chloro-4-fluorophenyl)-2-methyl-5-(4-phenylthiophen-2-yl)-1,2,6-thiadiazinane-3-carboxamide 1,1-dioxide], the EC50 is 1000 to 5000 nM.

Regarding `CN1C(C(=O)Nc2ccc(F)c(Cl)c2)CC(c2cnc(C(F)(F)F)s2)NS1(=O)=O` (stereo not drawn) [HBV-CSU-226, Cis-N-(3-chloro-4-fluorophenyl)-2-methyl-5-(2-(trifluoromethyl)thiazol-5-yl)-1,2,6-thiadiazinane-3-carboxamide 1,1-dioxide], the EC50 fell in the range of 1000 to 5000 nM.

As to `[2H]C1[C@]([2H])(c2ccc(-c3cn(C([2H])([2H])[2H])cn3)s2)NS(=O)(=O)N(C)[C@]1([2H])C(=O)Nc1ccc(F)c(Cl)c1` (stereo in doubt) [HBV-CSU-376-ISO-I, Cis-N-(3-Chloro-4-fluorophenyl)-2-methyl-5-(5-(1-(methyl-d3)-1H-imidazol-4-yl)thiophen-2-yl)-1,2,6-thiadiazinane-3,4,5-d3-3-carboxamide 1,1-dioxide], the EC50 was less than 1000 nM.

On to `CN1[C@@H](C(=O)Nc2ccc(F)c(Cl)c2)C[C@@H](C2CCCC2)NS1(=O)=O` [HBV-CSU-222-ISO-II, Cis-N-(3-chloro-4-fluorophenyl)-5-cyclopentyl-2-methyl-1,2,6-thiadiazinane-3-carboxamide 1,1-dioxide], for which the EC50 fell in the range of 1000 to 5000 nM.

In the case of `C#CCCN1C(C(=O)Nc2ccc(F)c(Cl)c2)CC(c2nccs2)NS1(=O)=O` (stereo not drawn) [HBV-CSU-090, Cis-2-(But-3-yn-1-yl)-N-(3-chloro-4-fluorophenyl)-5-(thiazol-2-yl)-1,2,6-thiadiazinane-3-carboxamide 1,1-dioxide], the EC50 was less than 1000 nM.

Turning to `[2H]C([2H])([2H])N1[C@H](C(=O)Nc2ccc(F)c(Cl)c2)C[C@H](c2ncc(Br)s2)NS1(=O)=O` [HBV-CSU-336-ISO-I, 5-(5-Bromothiazol-2-yl)-N-(3-chloro-4-fluorophenyl)-2-(methyl-d3)-1,2,6-thiadiazinane-3-carboxamide 1,1-dioxide], the EC50 is less than 1000 nM.

On to `CN1C(C(=O)Nc2ccc(F)c(Cl)c2)CC(c2ncc(-c3cncn3C)s2)NS1(=O)=O` (racemic) [HBV-CSU-277, Cis-N-(3-Chloro-4-fluorophenyl)-2-methyl-5-(5-(1-methyl-1H-imidazol-5-yl)thiazol-2-yl)-1,2,6-thiadiazinane-3-carboxamide 1,1-dioxide], for which the EC50 is less than 1000 nM.

In the case of `CN1[C@@H](C(=O)Nc2ccc(F)c(Cl)c2)C[C@@H](c2ccc(-c3cccnc3)s2)NS1(=O)=O` [HBV-CSU-159-ISO-I, Cis-N-(3-chloro-4-fluorophenyl)-2-methyl-5-(5-(pyridin-3-yl)thiophen-2-yl)-1,2,6-thiadiazinane-3-carboxamide 1,1-dioxide], the EC50 was in the range of 1000 to 5000 nM.

With `CN1[C@H](C(=O)Nc2ccc(F)c(Cl)c2)C[C@H](c2ccc(-c3c[nH]cn3)s2)NS1(=O)=O` [HBV-CSU-331-ISO-I, Cis-5-(5-(1H-imidazol-4-yl)thiophen-2-yl)-N-(3-chloro-4-fluorophenyl)-2-methyl-1,2,6-thiadiazinane-3-carboxamide 1,1-dioxide], the EC50 is less than 1000 nM.

For `Cc1nn(C)c(C)c1-c1ccc([C@@H]2C[C@H](C(=O)Nc3ccc(F)c(Cl)c3)N(C)S(=O)(=O)N2)s1` [HBV-CSU-314-ISO-II, Cis-N-(3-chloro-4-fluorophenyl)-2-methyl-5-(5-(1,3,5-trimethyl-1H-pyrazol-4-yl)thiophen-2-yl)-1,2,6-thiadiazinane-3-carboxamide 1,1-dioxide], the EC50 lay in the range of 1000 to 5000 nM.

With `CN1C(C(=O)Nc2ccc(F)c(Cl)c2)CC(c2ccc(F)c(F)c2)NS1(=O)=O` (racemic) [HBV-CSU-230, Cis-N-(3-Chloro-4-fluorophenyl)-5-(3,4-difluorophenyl)-2-methyl-1,2,6-thiadiazinane-3-carboxamide 1,1-dioxide], the concentration for a half-maximal effect (EC50) is less than 1000 nM.
